Columns and labels:
[1] = tested on: HCT 116 cells deficient in TIFA protein expression (TIFA KO); assay: IL-8 ELISA in TIFA knockout HCT 116 cells; format: cell-based, human; conditions: TIFA KO HCT 116
Method: Wild type (WT) or TIFA knockout (TIFA KO) cells were treated with compounds in the presence of digitonin for 20 min, treatment was removed, cells were washed and then cultured in normal medium without the synthetic compounds for 6 hr before IL-8 levels in culture supernatants were measured by ELISA. (A) Cells were treated with water or 10 μg/mL of the indicated compound. Data are means±standard error mean of technical triplicates. (B) Cells were treated with the NOD1 agonist C12-iE-DAP (39.8 μM) or with two different molar concentrations of compounds (30 μM or 150 μM). Two batches of dd-β-HBP and dd-β-HMP synthesized independently of one another were tested (batch #1 and batch #2) to assess consistency of the chemical synthesis. Data are means±standard error mean of two (150 μM treatment) or three (all other treatments) independent experiments. Nod1 agonist: C12-iE-DAP (20 μg/ml, 39.8 μM); JS-12: D-glycero-D-manno-heptose; JS-2: D-glycero-D-manno-heptose 7-phosphate; JS-7:D-glycero-β-D-manno-heptose-phosphate; JS-8: d-glycero-α-d-manno-heptose-phosphate; JS-9: β-d-mannose phosphate; JS-6:d-glycero-β-d-manno heptose 1,7-biphosphate; JS-5: d-glycero-α-d-manno heptose 1,7-biphosphate.
FIG. 11. Stimulation of human colonic epithelial cells by compounds/products according to the invention. Human colonic epithelial cells (HCT 116) that were either wild type (WT) or deficient in TIFA protein expression (knockout, KO) were stimulated for 20 minutes in permeabilization buffer (5 μg/mL digitonin) in the presence of water or 10 μg/mL, 30 μg/mL, or 50 μg/mL of indicated synthetic compounds according to the invention. Treatment was removed, cells were washed, and cells were incubated for 6 hours in complete media before IL-8 levels in culture supernatants was measured by ELISA. The results are the mean±standard error of the mean of three technical replicates. JS-10: 7-O-(Aminoethyl)-D-glycero-β-D-manno-heptopyranose phosphate; JS-11: 7-O-(Aminoethyl) -D-glycero-D-manno-heptopyranose; JS-12: D-glycero-D-manno-heptose; Js-13: pH-Rhodo -7-O-(aminoethyl)-D-glycero-β-D-manno-heptopyranose phosphate.
(§1) FIG. 13. Stimulation of human colonic epithelial cells by compounds/products according to the invention. Human colonic epithelial cells (HCT 116) that were either wild type (WT) or deficient in TIFA protein expression (knockout, TIFA KO) were stimulated for 20 minutes in permeabilization buffer (5 μg/mL digitonin) in the presence of water, 20 μg/mL of the Nod1 agonist C12-iE-DAP (39.8 μM, which induces inflammation in a TIFA-independent manner) or 30 μM or 150 μM of synthetic compound according to the invention. Treatment was removed, cells were washed, and cells were incubated for 6 hours in complete media before IL-8 levels in culture supernatants were measured by ELISA. The results are the mean±standard error of the mean of two (150 μM treatment) or three (all other treatments) independent experiments. #=none detected, JS-10: 7-O-(Aminoethyl)-d-glycero-β-d-manno-heptopyranose phosphate; JS-14: Biotin-7-O-(aminoethyl)-d-glycero-β-d-manno-heptopyranose phosphate, Nod1 agonist: C12-iE-DAP (20 μg/ml, 39.8 μM).
as §1, with “16.” for “13.”, “of” for “of the mean of two (150 μM treatment) or”, “technical replicates. […]” for “(all other treatments) independent experiments. #=none detected, JS-10: 7-O-(Aminoethyl)-d-glycero-β-d-manno-heptopyranose phosphate; JS-14: Biotin-7-O-(aminoethyl)-d-glycero-β-d-manno-heptopyranose phosphate, Nod1 agonist: C12-iE-DAP (20 μg/ml, 39.8 μM).”

[2] = tested on: TIFA knockout (TIFA KO) HEK 293T cells encoding an NF-κB-driven luciferase reporter gene; assay: NF-κB-driven luciferase reporter assay in TIFA knockout HEK 293T cells; format: cell-based, human; conditions: TIFA KO cells
Method: FIGS. 10A-B. Effect of chemically synthesised analogues on human embryonic kidney cells (HEK 293T) encoding an NF-κB-driven luciferase reporter gene. NF-κB luciferase activity was measured in wild type (WT) or TIFA knockout (TIFA KO) cells treated with compounds in the presence of digitonin for 20 min, washed, and then cultured in normal medium without the synthetic compounds for 6 hrs after treatment, before luciferase activity was measured. (A) Cells were treated with 10 μg/mL of the indicated compound. Data are means±standard error mean of technical triplicates. (B) Cells were treated with two different molar concentrations of compound (30 μM or 150 μM). Two batches of DD-β-HBP and DD-β-HMP synthesized independently of one another were tested (batch #1 and batch #2) to assess consistency of the chemical synthesis. Data are means±standard error mean of technical triplicates and are representative of three independent experiments. JS-12: D-glycero-D-manno-heptose; JS-2: D-glycero-D-manno-heptose 7-phosphate; JS-7:D-glycero-β-D-manno-heptose-phosphate; JS-8: D-glycero-α-D-manno-heptose-phosphate; JS-9: β-D-mannose phosphate; JS-6:D-glycero-β-D-manno heptose 1,7-biphosphate; JS-5: D-glycero-α-D-manno heptose 1,7-biphosphate.

NCCOC[C@@H](O)C1O[C@@H](OP(=O)([O-])[O-])C(O)[C@@H](O)[C@@H]1O.[Na+].[Na+] (stereo partly drawn) [JS-10a, 7-O-(Aminoethyl)-D-glycero-β-D-manno-heptopyranose phosphate]
relative absence of activity: activity in TIFA KO cells (IL-8), TIFA dependence ([1]; FIG. 11, 10, 30 or 50 μg/mL) | activity in TIFA KO cells (IL-8), TIFA dependence ([1]; FIG. 13, 30 μM or 150 μM (Nod1 agonist 39.8 μM)) | activity in TIFA KO cells (NF-κB luciferase), TIFA dependence ([2]; FIG. 12, 10, 30 or 50 μg/mL) | activity in TIFA KO cells (NF-κB luciferase), TIFA dependence ([2]; FIG. 14, 30 μM or 150 μM)

Reference: US11795190B2, “D-glycero-B-D-heptose 1-phosphate (HMP) conjugates and use for targeted immune modulation” (NATIONAL RESEARCH COUNCIL OF CANADA, priority 2017, dated 2023)
